Converted amounts (≈) assume the structure as drawn.
Assays:
Experiment in all cases: in vitro antibacterial evaluation, MIC by broth dilution
Type in all cases: cell-based
Enterococcus sp. = conditions: broth dilution, 18 hours at 35° C.
Outline: (§1)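 Broth dilution per NCCLS standard M7-A2 in Muller-Hinton II […], with an inoculum of 5×10^5 CFU/mL and antibiotic spanning 64-0.06 μg/mL. The MIC is the lowest concentration that inhibits growth of the organism.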

Staphylococcus sp. = conditions: broth dilution, 18 hours at 35° C.
Outline: as §1

Streptococcus sp. = conditions: broth dilution, 18 hours at 35° C.
Outline: as §1

Escherichia coli = conditions: 18 hours at 35° C.
Outline: as §1

CC(C)=CCCC1OCC2OC(OC3C(CO)OC(Oc4ccc(CC5NC(=O)C(C(C)c6ccccc6)NC(=O)CNC(=O)C(CO)NC(=O)C(C(O)C6CNC(=N)N6C6OC(CO)C(O)C(O)C6O)NC(=O)C(C(O)C6CNC(=N)N6)NC5=O)cc4)C(O)C3O)C(O)C(O)C2O1 (stereo not shown) [Example 123]
MIC Enterococcus avium (GC 4558) (Enterococcus sp.; Enterococcus avium (GC 4558)): 16 µg/mL (≈ 11.5 µM)
MIC Enterococcus faecalis (ATCC 29212) (Enterococcus sp.; Enterococcus faecalis (ATCC 29212)): 8 µg/mL (≈ 5.76 µM)
MIC Enterococcus faecalis (GC 2242) (Enterococcus sp.; Enterococcus faecalis (GC 2242)): 8 µg/mL (≈ 5.76 µM)
MIC Enterococcus faecalis (GC 2691) (Enterococcus sp.; Enterococcus faecalis (GC 2691)): 16 µg/mL (≈ 11.5 µM)
MIC Enterococcus faecalis (GC 3059) (Enterococcus sp.; Enterococcus faecalis (GC 3059)): 16 µg/mL (≈ 11.5 µM)
MIC Enterococcus faecalis (GC 4552) (Enterococcus sp.; Enterococcus faecalis (GC 4552)): 8 µg/mL (≈ 5.76 µM)
MIC Enterococcus faecalis (GC 4553) (Enterococcus sp.; Enterococcus faecalis (GC 4553)): 16 µg/mL (≈ 11.5 µM)
MIC Enterococcus faecalis (GC 4554) (Enterococcus sp.; Enterococcus faecalis (GC 4554)): 16 µg/mL (≈ 11.5 µM)
MIC Enterococcus faecalis (GC 6189) (Enterococcus sp.; Enterococcus faecalis (GC 6189)): 8 µg/mL (≈ 5.76 µM)
MIC Enterococcus faecium (GC 2243) (Enterococcus sp.; Enterococcus faecium (GC 2243)): 8 µg/mL (≈ 5.76 µM)
MIC Enterococcus faecium (GC 4556) (Enterococcus sp.; Enterococcus faecium (GC 4556)): 8 µg/mL (≈ 5.76 µM)
MIC Enterococcus faecium (GC 4557) (Enterococcus sp.; Enterococcus faecium (GC 4557)): 8 µg/mL (≈ 5.76 µM)
MIC Enterococcus faecalis (ATCC 29212) (Enterococcus sp.; strain ATCC 29212): 8 µg/mL (≈ 5.76 µM)
MIC Enterococcus faecalis (GC 2242) (Enterococcus sp.; strain GC 2242): 8 µg/mL (≈ 5.76 µM)
MIC Enterococcus faecium (GC 2243) (Enterococcus sp.; strain GC 2243): 8 µg/mL (≈ 5.76 µM)
MIC Enterococcus faecalis (GC 2691) (Enterococcus sp.; strain GC 2691): 16 µg/mL (≈ 11.5 µM)
MIC Enterococcus faecalis (GC 3059) (Enterococcus sp.; strain GC 3059): 16 µg/mL (≈ 11.5 µM)
MIC Enterococcus faecalis (GC 4552) (Enterococcus sp.; strain GC 4552): 8 µg/mL (≈ 5.76 µM)
MIC Enterococcus faecalis (GC 4553) (Enterococcus sp.; strain GC 4553): 16 µg/mL (≈ 11.5 µM)
MIC Enterococcus faecalis (GC 4554) (Enterococcus sp.; strain GC 4554): 16 µg/mL (≈ 11.5 µM)
MIC Enterococcus faecium (GC 4556) (Enterococcus sp.; strain GC 4556): 8 µg/mL (≈ 5.76 µM)
MIC Enterococcus faecium (GC 4557) (Enterococcus sp.; strain GC 4557): 8 µg/mL (≈ 5.76 µM)
MIC Enterococcus avium (GC 4558) (Enterococcus sp.; strain GC 4558): 16 µg/mL (≈ 11.5 µM)
MIC Enterococcus faecalis (GC 6189) (Enterococcus sp.; strain GC 6189): 8 µg/mL (≈ 5.76 µM)
MIC Staphylococcus aureus (ATCC 29213) (Staphylococcus sp.): 8 µg/mL (≈ 5.76 µM)
MIC Staphylococcus aureus (GC 1131) (Staphylococcus sp.): 8 µg/mL (≈ 5.76 µM)
MIC Staphylococcus aureus (GC 3051) (Staphylococcus sp.): 8 µg/mL (≈ 5.76 µM)
MIC Staphylococcus aureus (GC 3053) (Staphylococcus sp.): 8 µg/mL (≈ 5.76 µM)
MIC Staphylococcus aureus (GC 4541) (Staphylococcus sp.): 4 µg/mL (≈ 2.88 µM)
MIC Staphylococcus aureus (GC 4542) (Staphylococcus sp.): 4 µg/mL (≈ 2.88 µM)
MIC Staphylococcus aureus (GC 4544) (Staphylococcus sp.): 8 µg/mL (≈ 5.76 µM)
MIC Staphylococcus aureus (GC 4545) (Staphylococcus sp.): 8 µg/mL (≈ 5.76 µM)
MIC Staphylococcus aureus (GC 1131) (Staphylococcus sp.; inoculum 5×10^5 CFU/mL, strain GC 1131): 8 µg/mL (≈ 5.76 µM)
MIC Staphylococcus aureus (ATCC 29213) (Staphylococcus sp.; strain ATCC 29213): 8 µg/mL (≈ 5.76 µM)
MIC Staphylococcus aureus (GC 3051) (Staphylococcus sp.; strain GC 3051): 8 µg/mL (≈ 5.76 µM)
MIC Staphylococcus aureus (GC 3053) (Staphylococcus sp.; strain GC 3053): 8 µg/mL (≈ 5.76 µM)
MIC Staphylococcus aureus (GC 4541) (Staphylococcus sp.; strain GC 4541): 4 µg/mL (≈ 2.88 µM)
MIC Staphylococcus aureus (GC 4542) (Staphylococcus sp.; strain GC 4542): 4 µg/mL (≈ 2.88 µM)
MIC Staphylococcus aureus-SMITH (GC 4543) (Staphylococcus sp.; strain GC 4543): 4 µg/mL (≈ 2.88 µM)
MIC Staphylococcus aureus (GC 4544) (Staphylococcus sp.; strain GC 4544): 8 µg/mL (≈ 5.76 µM)
MIC Staphylococcus aureus (GC 4545) (Staphylococcus sp.; strain GC 4545): 8 µg/mL (≈ 5.76 µM)
MIC Staphylococcus haemolyticus (GC 4546) (Staphylococcus sp.; strain GC 4546): 8 µg/mL (≈ 5.76 µM)
MIC Coagulase Negative Staphylococcus (GC 4547) (Staphylococcus sp.; strain GC 4547): 8 µg/mL (≈ 5.76 µM)
MIC Coagulase Negative Staphylococcus (GC 4548) (Staphylococcus sp.; strain GC 4548): 4 µg/mL (≈ 2.88 µM)
MIC Coagulase Negative Staphylococcus (GC 4549) (Staphylococcus sp.; strain GC 4549): 4 µg/mL (≈ 2.88 µM)
MIC Coagulase Negative Staphylococcus (GC 4551) (Staphylococcus sp.; strain GC 4551): 8 µg/mL (≈ 5.76 µM)
MIC Coagulase Negative Staphylococcus (GC 6257) (Staphylococcus sp.; strain GC 6257): 4 µg/mL (≈ 2.88 µM)
MIC Staphylococcus aureus-SMITH (GC 4543) (Staphylococcus sp.; strain SMITH GC 4543): 4 µg/mL (≈ 2.88 µM)
MIC Streptococcus agalactiae (GC 4564) (Streptococcus sp.; Streptococcus agalactiae (GC 4564)): 2 µg/mL (≈ 1.44 µM)
MIC Streptococcus pneumoniae (ATCC 6301) (Streptococcus sp.; Streptococcus pneumoniae (ATCC 6301)): 1 µg/mL (≈ 0.72 µM)
MIC Streptococcus pneumoniae (GC 1894) (Streptococcus sp.; Streptococcus pneumoniae (GC 1894)): 1 µg/mL (≈ 0.72 µM)
MIC Streptococcus pneumoniae (GC 4565) (Streptococcus sp.; Streptococcus pneumoniae (GC 4565)): 2 µg/mL (≈ 1.44 µM)
MIC Streptococcus pyogenes (GC 4563) (Streptococcus sp.; Streptococcus pyogenes (GC 4563)): 0.5 µg/mL (≈ 0.36 µM)
MIC Streptococcus pneumoniae (ATCC 6301) (Streptococcus sp.; strain ATCC 6301): 1 µg/mL (≈ 0.72 µM)
MIC Streptococcus pneumoniae (GC 1894) (Streptococcus sp.; strain GC 1894): 1 µg/mL (≈ 0.72 µM)
MIC Streptococcus pyogenes (GC 4563) (Streptococcus sp.; strain GC 4563): 0.5 µg/mL (≈ 0.36 µM)
MIC Streptococcus agalactiae (GC 4564) (Streptococcus sp.; strain GC 4564): 2 µg/mL (≈ 1.44 µM)
MIC Streptococcus pneumoniae (GC 4565) (Streptococcus sp.; strain GC 4565): 2 µg/mL (≈ 1.44 µM)
MIC Escherichia coli (ATCC 25922) (Escherichia coli; strain ATCC 25922): >64 µg/mL
MIC Escherichia coli (GC 4559) (Escherichia coli; strain GC 4559): >64 µg/mL
MIC Escherichia coli (GC 4560) (Escherichia coli; strain GC 4560): 8 µg/mL (≈ 5.76 µM)
